Measured values from ChEMBL document CHEMBL3603767, “Discovery of new acetylcholinesterase inhibitors with small core structures through shape-based virtual screening” (Bioorg Med Chem Lett, 2015).
Active and inactive are the calls of the source. The rule behind the calls is not given here.

What was measured:
Acetylcholinesterase = Acetylcholinesterase (Electrophorus electricus, UniProt O42275)
Description: Inhibition of Electrophorus electricus AChE pre-incubated for 5 mins before acetylthiocholine iodide substrate addition by Ellman's method

Cholinesterase = Cholinesterase (Equus caballus, UniProt P81908)
Description: Inhibition of equine serum BChE pre-incubated for 5 mins before butyrylthiocholineiodide substrate addition by Ellman's method

[1] = biological target: Cholinesterase (Equus caballus) (UniProt P81908); experiment: Inhibition of equine serum BChE at 10 uM pre-incubated for 5 mins before butyrylthiocholineiodide substrate addition by Ellman's method
[2] = biological target: Acetylcholinesterase (Electrophorus electricus) (UniProt O42275); experiment: Inhibition of Electrophorus electricus AChE at 10 uM pre-incubated for 5 mins before acetylthiocholine iodide substrate addition by Ellman's method
[3] = biological target: Acetylcholinesterase (Electrophorus electricus) (UniProt O42275); experiment: Mixed type inhibition of Electrophorus electricus AChE assessed as increase in enzyme Km at 5 to 80 nM pre-incubated for 5 mins before acetylthiocholine iodide substrate addition by Lineweaver-Burk plot
[4] = biological target: Acetylcholinesterase (Electrophorus electricus) (UniProt O42275); experiment: Mixed type inhibition of Electrophorus electricus AChE assessed as reduction in enzyme Vmax at 5 to 80 nM pre-incubated for 5 mins before acetylthiocholine iodide substrate addition by Lineweaver-Burk plot

Acetylcholinesterase, sequence (O42275 whole entry): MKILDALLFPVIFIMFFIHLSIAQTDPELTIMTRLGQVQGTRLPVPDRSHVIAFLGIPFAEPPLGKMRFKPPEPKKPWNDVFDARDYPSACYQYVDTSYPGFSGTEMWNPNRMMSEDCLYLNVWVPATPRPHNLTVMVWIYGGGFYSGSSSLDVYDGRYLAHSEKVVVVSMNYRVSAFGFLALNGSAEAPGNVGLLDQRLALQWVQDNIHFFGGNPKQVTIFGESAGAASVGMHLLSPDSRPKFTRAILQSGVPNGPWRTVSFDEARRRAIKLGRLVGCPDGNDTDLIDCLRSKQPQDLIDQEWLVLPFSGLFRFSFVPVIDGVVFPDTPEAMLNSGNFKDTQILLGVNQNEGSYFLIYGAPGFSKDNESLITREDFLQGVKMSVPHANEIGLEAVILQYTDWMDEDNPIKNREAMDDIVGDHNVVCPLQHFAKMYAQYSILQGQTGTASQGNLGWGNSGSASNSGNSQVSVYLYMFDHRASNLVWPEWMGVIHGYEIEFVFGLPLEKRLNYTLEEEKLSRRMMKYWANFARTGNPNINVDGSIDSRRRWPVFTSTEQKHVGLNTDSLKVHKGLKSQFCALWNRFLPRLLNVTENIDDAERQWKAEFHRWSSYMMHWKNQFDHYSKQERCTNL
Cholinesterase (Equus caballus), sequence (P81908 whole entry): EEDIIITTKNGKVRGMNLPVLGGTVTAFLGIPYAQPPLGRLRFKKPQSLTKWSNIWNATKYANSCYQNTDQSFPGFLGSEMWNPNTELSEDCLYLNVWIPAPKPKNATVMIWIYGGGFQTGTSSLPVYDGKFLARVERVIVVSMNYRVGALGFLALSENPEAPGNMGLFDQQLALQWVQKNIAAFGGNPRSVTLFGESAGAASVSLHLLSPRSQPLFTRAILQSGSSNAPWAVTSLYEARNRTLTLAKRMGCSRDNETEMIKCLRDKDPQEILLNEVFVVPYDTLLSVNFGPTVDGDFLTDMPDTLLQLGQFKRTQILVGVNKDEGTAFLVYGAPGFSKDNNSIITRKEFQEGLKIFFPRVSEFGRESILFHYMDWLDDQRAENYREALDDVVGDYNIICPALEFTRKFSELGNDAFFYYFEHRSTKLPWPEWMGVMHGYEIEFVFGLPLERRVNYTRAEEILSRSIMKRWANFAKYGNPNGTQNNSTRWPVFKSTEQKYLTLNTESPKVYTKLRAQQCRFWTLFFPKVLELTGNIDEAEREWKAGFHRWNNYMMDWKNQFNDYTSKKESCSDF
Cholinesterase, sequence (P81908 whole entry): as above
Acetylcholinesterase (Electrophorus electricus), sequence (O42275 24-633 limits assumed): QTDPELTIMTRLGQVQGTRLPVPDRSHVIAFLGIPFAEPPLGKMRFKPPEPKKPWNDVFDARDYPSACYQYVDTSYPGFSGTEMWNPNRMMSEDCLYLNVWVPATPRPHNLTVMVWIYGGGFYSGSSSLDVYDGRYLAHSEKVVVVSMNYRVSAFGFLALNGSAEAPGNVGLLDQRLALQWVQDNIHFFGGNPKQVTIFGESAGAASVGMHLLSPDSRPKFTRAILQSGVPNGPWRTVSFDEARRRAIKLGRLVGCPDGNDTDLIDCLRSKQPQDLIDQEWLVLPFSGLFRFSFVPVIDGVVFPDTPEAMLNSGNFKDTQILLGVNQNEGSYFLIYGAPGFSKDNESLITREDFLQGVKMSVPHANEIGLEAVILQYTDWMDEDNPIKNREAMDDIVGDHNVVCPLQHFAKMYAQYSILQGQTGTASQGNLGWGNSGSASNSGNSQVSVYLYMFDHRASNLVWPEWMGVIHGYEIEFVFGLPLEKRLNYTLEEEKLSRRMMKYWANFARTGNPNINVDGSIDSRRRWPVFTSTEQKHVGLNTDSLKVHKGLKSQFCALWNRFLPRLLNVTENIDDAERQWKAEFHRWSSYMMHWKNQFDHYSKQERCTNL

| Structure (SMILES) | IC50 (Acetylcholinesterase) [nM] | IC50 (Cholinesterase) [nM] | inhibition [1] [%] | inhibition [2] [%] | inhibition [3] | inhibition [4] |
| --- | --- | --- | --- | --- | --- | --- |
| CCCCN1CCc2c1nc1ccc(Br)cc1c2N | 300 | 8920 | 92.5 | 90.6 | – | – |
| CC1(C)CC(=O)c2c(nc3ccccc3c2N)C1 | 7190 | 36200 | 85 | 92.8 | – | – |
| CC(=O)c1c(C)nc2ccccc2c1N | 320 | 460 | 99.7 | 96.9 | Active | Active |
| Oc1nc(S)nc2c1CCCN2 | – | – | 30.4 | 68.3 | – | – |
| Nc1ccc2nc3n(c(=O)c2c1)CCC3 | – | – | 31.7 | 59.2 | – | – |
| Nc1c2c(nc3sccc13)CCCC2 | 260 | 110 | 98.2 | 99.8 | – | – |
| O=c1c(Br)c[nH]c2cccnc12 | – | – | 24.2 | 28.3 | – | – |
| Nc1nc(N)c2c(n1)CCC2 | – | – | 46.7 | 50.8 | – | – |
| Nc1c2c(nc3ccccc13)N(Cc1ccccc1)CC2 | 740 | 2250 | 99.8 | 96.4 | – | – |
| Oc1ccnc2ccccc12 | – | – | 28.8 | 32.5 | – | – |
| Cc1cccc2c(N)c3c(nc12)N(C)CC3 | 1150 | 15900 | 90.8 | 89.7 | – | – |
| O=C1c2ccccc2NC2=NCCCN12 | – | – | 42.5 | 26.7 | – | – |
| CN1CCNc2nc3ccccc3nc21 | – | – | 42.1 | 26.1 | – | – |
| Nc1c2c(nc3c4c(nn13)CCC4)CCC2 | 7410 | 60900 | 59.2 | 76.7 | – | – |
| N#CCSc1nc(N)c2c3c(sc2n1)CCCC3 | – | – | 65.4 | 34.2 | – | – |
| O=c1c2ccccc2nc2n1CCCS2 | – | – | 45 | 59.2 | – | – |
| Nc1nc(N)c2c(Br)cccc2n1 | – | – | 82.5 | 76.9 | – | – |
| Nc1c(N)c2ccccc2oc1=O | – | – | 27.9 | 8.33 | – | – |
| Nc1nc(O)c2c(n1)CCC2 | – | – | 45.8 | 45.6 | – | – |
| CC(=O)c1oc2ccccc2c1N | – | – | 49.2 | 13.3 | – | – |
| COc1ccc2nc(C(F)(F)F)c(C#N)c(N)c2c1 | 690 | 30700 | 35.4 | 85 | – | – |
| Nc1c2c(nc3c1C1CCCCC1S3)CCCC2 (stereo not given) | 30 | 330 | 98.8 | 95.6 | Active | Active |
| Nc1c2c(nc3c1CCC3)CCCC2 [IPIDACRINE] | 170 | 70 | 99 | 98.7 | – | – |
